B1: Fas ligand: death ligand, 100 ng/ml, PeoproTech (protein, UniProt P48023 130-281, looked up)
Tumor necrosis factor ligand …: QIGHPSPPPEKKELRKVAHLTGKSNSRSMPLEWEDTYGIVLLSGVKYKKGGLVINETGLYFVYSKVYFRGQSCNNLPLSHKVYMRNSKYPQDLVMMEGKMMSYCTTGQMWARSSYLGAVFNLTSADHLYVNVSELSLVNFEESQTFFGLYKL

Key:
[1] = system: B lymphoma cells; assay: In vitro lymphocyte survival and apoptosis assays (trypan blue dye exclusion); format: cell-based, mouse; conditions: B lymphoma cells from p80HT transgenic mice; doxorubicin 0.5 μg/ml
Experimental: (§1) C-E: In vitro survival and apoptosis assays of splenic B cells and B lymphoma cells. Cells were either untreated (D) or treated with 0.5 μg/ml of doxorubicin (C) or with 20 μg/ml of LPS (E). Viability was determined by trypan blue dye exclusion assays. Data in (A-E) represent means±SD of cells from 5 mice of each genotype or from 58 lymphomas samples.
(§2) Purified splenic B cells and B lymphoma cells (10^5/well, 96-well plate) were cultured in DMEM supplemented with 10% FBS, 250 μM L-asparagine, and 50 μM 2-mercaptoethanol. Cells were either untreated or treated with recombinant mouse TNF-α (20 ng/ml, Calbiochem), Fas ligand (100 ng/ml, PeoproTech), LPS (20 μg/ml, Sigma), or doxorubicin (0.5 μg/ml, Ben Venue Laboratories), and viable cells were determined daily by trypan blue dye exclusion assays.

[2] = system: splenic B cells; assay: as above; format: cell-based, mouse; conditions: for sensitivity of splenic B cells to death stimuli: both wild-type and p80HT splenic B cells, TNF-α 20 ng/ml, Fas ligand 100 ng/ml, doxorubicin 0.5 μg/ml
Experimental: as §1, §2

Molecule	apoptosis induced by doxorubicin [1]	sensitivity of splenic B cells to death stimuli [2]	apoptosis induced by the activation signal (LPS) ([2]; p80HT splenic B cells, LPS 20 μg/ml)	response of splenic B cells to LPS ([2]; splenic B cells generally, LPS 20 μg/ml, after about 3 days of proliferation)
COc1cccc2c1C(=O)c1c(O)c3c(c(O)c1C2=O)C[C@@](O)(C(=O)CO)C[C@@H]3O[C@H]1C[C@H](N)[C@H](O)[C@H](C)O1 [doxorubicin]	highly resistant	equally sensitive		
TNF-a		highly resistant		
lipopolysaccharide [LPS]			highly resistant	extensive apoptosis
B1		highly resistant		

Reference: US20060117399A1, “Animal model for human lymphomas” (Medical University, priority 2004, published 2006)
